This test deals with T1, mouse TRPM3α2 (mTRPM3) ion channel (Mus musculus, UniProt J9SQF3).
T1 construct: expressed in transfected cells; host or cells: flip-in HEK293
In words: TRPM3 ion channel driven Ca2+ uptake, Fluo-4 AM assay, PS-stimulated (mTRPM3). Conditions: TRPM3 overexpressing flip-in HEK293 cells stimulated with Pregnenolone sulfate (PS) 50 μM, activity ranges A, B, C. The format is cell-based. Put shortly:
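Flp-In HEK293 cells overexpressing mTRPM3α2 were added, in Ca²⁺-free Krebs, to wells already holding compound and 50 μM pregnenolone sulfate in Ca²⁺-containing Krebs. Fluo-4 AM fluorescence (ex 485/em 535 nm) was read immediately. Percent inhibition was computed from RFU relative to PS/vehicle wells and a positive-control inhibitor.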

A word on the IC50: it is the point on the concentration scale where inhibition reaches its midpoint.

A value given as a limit tells only on which side of the number the result lay.

T1 sequence (J9SQF3 1-1709 isoform J9SQF3-12): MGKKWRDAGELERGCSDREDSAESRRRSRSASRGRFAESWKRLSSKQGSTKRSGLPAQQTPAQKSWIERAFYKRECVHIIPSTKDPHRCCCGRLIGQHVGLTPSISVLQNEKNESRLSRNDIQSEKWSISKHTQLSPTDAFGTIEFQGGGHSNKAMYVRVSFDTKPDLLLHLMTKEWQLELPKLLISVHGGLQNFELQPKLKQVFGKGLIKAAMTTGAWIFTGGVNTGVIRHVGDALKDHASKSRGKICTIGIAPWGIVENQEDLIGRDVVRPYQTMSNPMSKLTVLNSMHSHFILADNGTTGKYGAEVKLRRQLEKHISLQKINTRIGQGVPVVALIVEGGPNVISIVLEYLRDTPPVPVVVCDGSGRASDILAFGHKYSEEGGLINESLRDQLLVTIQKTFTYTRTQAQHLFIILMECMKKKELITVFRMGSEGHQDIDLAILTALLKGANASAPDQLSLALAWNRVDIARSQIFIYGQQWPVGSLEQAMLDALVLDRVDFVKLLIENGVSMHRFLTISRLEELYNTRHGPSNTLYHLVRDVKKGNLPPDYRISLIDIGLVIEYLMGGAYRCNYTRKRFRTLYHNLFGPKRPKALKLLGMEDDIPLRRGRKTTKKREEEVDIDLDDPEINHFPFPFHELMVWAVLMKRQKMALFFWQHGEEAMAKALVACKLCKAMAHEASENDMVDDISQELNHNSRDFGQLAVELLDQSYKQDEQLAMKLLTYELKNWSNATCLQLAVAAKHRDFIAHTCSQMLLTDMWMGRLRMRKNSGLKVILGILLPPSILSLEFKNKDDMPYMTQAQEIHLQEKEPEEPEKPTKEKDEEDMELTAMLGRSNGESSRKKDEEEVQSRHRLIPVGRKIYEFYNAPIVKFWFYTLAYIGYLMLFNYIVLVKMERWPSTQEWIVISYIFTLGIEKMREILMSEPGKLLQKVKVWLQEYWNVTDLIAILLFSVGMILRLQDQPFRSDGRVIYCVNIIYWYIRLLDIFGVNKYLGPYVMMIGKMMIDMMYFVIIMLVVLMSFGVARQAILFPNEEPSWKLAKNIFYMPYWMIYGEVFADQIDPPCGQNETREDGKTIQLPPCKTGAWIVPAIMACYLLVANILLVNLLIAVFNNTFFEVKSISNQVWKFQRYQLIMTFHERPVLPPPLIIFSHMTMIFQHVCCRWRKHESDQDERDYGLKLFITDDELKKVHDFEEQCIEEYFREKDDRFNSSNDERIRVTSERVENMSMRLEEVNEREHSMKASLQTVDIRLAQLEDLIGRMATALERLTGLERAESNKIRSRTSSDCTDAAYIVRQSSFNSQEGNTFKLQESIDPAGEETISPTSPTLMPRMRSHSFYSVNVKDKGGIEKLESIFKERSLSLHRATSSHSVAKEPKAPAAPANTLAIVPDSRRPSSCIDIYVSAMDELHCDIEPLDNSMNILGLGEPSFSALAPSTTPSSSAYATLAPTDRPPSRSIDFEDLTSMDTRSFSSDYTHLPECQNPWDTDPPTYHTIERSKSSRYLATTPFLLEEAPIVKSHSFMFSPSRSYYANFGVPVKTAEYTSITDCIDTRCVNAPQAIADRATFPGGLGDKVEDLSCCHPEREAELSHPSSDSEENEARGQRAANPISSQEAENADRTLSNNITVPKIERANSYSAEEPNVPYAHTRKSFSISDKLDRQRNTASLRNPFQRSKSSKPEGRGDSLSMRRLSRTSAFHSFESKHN

As to `Cc1oc2ccc(OCc3ccccc3)cc2c1C(=O)NCCc1ccccc1` [Cpd 134, 5-(benzyloxy)-2-methyl-N-phenethylbenzofuran-3-carboxamide], the concentration for half-maximal inhibition (IC50) was over 20 µM. `Cc1oc2ccc(OCc3ccccc3)cc2c1C(=O)NCC1CCN(C(=O)OC(C)(C)C)CC1` [Cpd 253, tert-butyl 4-((5-(benzyloxy)-2-methylbenzofuran-3-carboxamido)methyl)piperidine-1-carboxylate] displayed a half-maximal inhibitory concentration (IC50) of over 20 µM. Regarding `Cc1oc2cc(Cl)c(OCc3ccccc3)cc2c1C(=O)NC1CNCC1(F)F` (single isomer, unassigned) [Cpd 300-En 2, 5-(benzyloxy)-6-chloro-N-(4,4-difluoropyrrolidin-3-yl)-2-methylbenzofuran-3-carboxamide], the IC50 was over 20 µM.

In turn, `Cc1oc2ccc(OCc3ccccc3F)cc2c1C(=O)N[C@H]1CCNC1` [Cpd 095, (S)-5-((2-fluorobenzyl)oxy)-2-methyl-N-(pyrrolidin-3-yl)benzofuran-3-carboxamide] had a 50% inhibitory concentration (IC50) of under 1 µM. The figure for `Cc1oc2ccc(OCc3ccccc3)cc2c1C(=O)NC1(CO)CCN(C(=O)OC(C)(C)C)CC1` [Cpd 262, tert-butyl 4-(5-(benzyloxy)-2-methylbenzofuran-3-carboxamido)-4-(hydroxymethyl)piperidine-1-carboxylate] is 1 to 20 µM; for `CCN1CCCN(C(=O)c2c(C)oc3ccc(OCc4ccccc4)cc23)CC1` [Cpd 149, (5-(benzyloxy)-2-methylbenzofuran-3-yl)(4-ethyl-1,4-diazepan-1-yl)methanone] it is over 20 µM. `Cc1oc2ccc(OCc3cccc(CNC(=O)OC(C)(C)C)c3)cc2c1C(=O)NC1CCNC1=O` (stereo not drawn) [Cpd 261, tert-butyl (3-(((2-methyl-3-((2-oxopyrrolidin-3-yl)carbamoyl)benzofuran-5-yl)oxy)methyl)-benzyl)carbamate] registered a concentration for half-maximal inhibition (IC50) of over 20 µM. The figure for `Cc1oc2ccc(OCc3ccc(F)cc3)cc2c1C(=O)N[C@H]1CCNC1` [Cpd 097, (S)-5-((4-fluorobenzyl)oxy)-2-methyl-N-(pyrrolidin-3-yl)benzofuran-3-carboxamide] is under 1 µM; for `Cc1oc2ccc(OCc3ccc(F)cc3Cl)cc2c1C(=O)O` [Cpd 022, 5-((2-chloro-4-fluorobenzyl)oxy)-2-methylbenzofuran-3-carboxylic acid] it is 1 to 20 µM; for `Cc1oc2ccc(OCc3ccccc3F)cc2c1C(=O)NC1(C(N)=O)CCOC1` (single isomer, unassigned) [Cpd 323-En 1, N-(3-carbamoyltetrahydrofuran-3-yl)-5-((2-fluorobenzyl)oxy)-2-methylbenzofuran-3-carboxamide] it is under 1 µM. The figure for `Cc1oc2ccc(OCc3ccccc3)cc2c1C(=O)NCCN(C)C` [Cpd 055, 5-(benzyloxy)-N-(2-(dimethylamino)ethyl)-2-methylbenzofuran-3-carboxamide] is 1 to 20 µM.

As to `Cc1oc2ccc(OCc3ccccc3C(F)(F)F)cc2c1C(=O)N[C@H]1CCNC1` [Cpd 203, (S)-2-methyl-N-(pyrrolidin-3-yl)-5-((2-(trifluoromethyl)benzyl)oxy)benzofuran-3-carboxamide], the IC50 was under 1 µM. Then `Cc1cc(C)c(CNC(=O)c2c(C)oc3ccc(OCc4ccccc4)cc23)c(=O)[nH]1` [Cpd 200, 5-(benzyloxy)-N-((4,6-dimethyl-2-oxo-1,2-dihydropyridin-3-yl)methyl)-2-methylbenzofuran-3-carboxamide], with over 20 µM; and `Cc1oc2ccc(OCc3ccccc3)cc2c1C(=O)N[C@H]1C[C@H]2CC[C@@H](C1)N2` [Cpd 143, 5-(benzyloxy)-N-((1R,3r,5S)-8-azabicyclo[3.2.1]octan-3-yl)-2-methylbenzofuran-3-carboxamide], with under 1 µM; and `Cc1oc2ccc(OCc3ccccc3F)cc2c1C(=O)NC(CO)C(N)=O` (single isomer, unassigned) [Cpd 314-En 1], with under 1 µM.
